Source: PubChem BioAssay (NCI)
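Method: 48-hour compound exposure of cells in 96-well plates, five concentrations, linear interpolation of endpoints. Abbreviation: GI50, concentration required for 50% inhibition of growth. TGI: total growth inhibition.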

Experiments:
Assay in all cases: growth of human tumour cells (NCI), 48 h
[1] = system: MDA-MB-231 breast
[2] = system: SF-295 CNS
[3] = system: ACHN renal
[4] = system: HOP-62 NSCLC
[5] = system: 786-0 renal
[6] = system: MOLT-4 leukemia
[7] = system: MALME-3M melanoma
[8] = system: SNB-19 CNS
[9] = system: SK-MEL-28 melanoma
[10] = system: UACC-62 melanoma
[11] = system: RPMI-8226 leukemia
[12] = system: SK-OV-3 ovarian
[13] = system: CCRF-CEM leukemia
[14] = system: LOX IMVI melanoma
[15] = system: OVCAR-5 ovarian
[16] = system: U251 CNS
[17] = system: HCT-116 colon
[18] = system: IGROV1 ovarian
[19] = system: A549 NSCLC
[20] = system: UO-31 renal
[21] = system: NCI-H460 lung
[22] = system: HCT-15 colon
[23] = system: NCI-H23 lung
[24] = system: PC-3 prostate
[25] = system: OVCAR-3 ovarian
[26] = system: MDA-MB-468 breast
[27] = system: K-562 leukemia
[28] = system: M14 melanoma
[29] = system: NCI-H226 lung
[30] = system: SK-MEL-2 melanoma
[31] = system: SN12C renal
[32] = system: SR leukemia
[33] = system: OVCAR-4 ovarian
[34] = system: A498 renal
[35] = system: NCI-H522 lung
[36] = system: KM12 colon
[37] = system: MDA-MB-435
[38] = system: SK-MEL-5 melanoma
[39] = system: TK-10 renal
[40] = system: HCC-2998 colon
[41] = system: T-47D breast
[42] = system: RXF 393 renal
[43] = system: SW-620 colon
[44] = system: MCF7 breast
[45] = system: SF-268 CNS
[46] = system: CAKI-1 renal
[47] = system: COLO 205 colon
[48] = system: HT29 colon
[49] = system: EKVX NSCLC
[50] = system: OVCAR-8 ovarian
[51] = system: HL-60(TB) leukemia
[52] = system: BT-549 breast
[53] = system: DU-145 prostate
[54] = system: HOP-92 NSCLC
[55] = system: SF-539 CNS
[56] = system: UACC-257 melanoma
[57] = system: HS 578T breast

In the case of CC(C)(C)c1cc(-c2cc(-c3ccccc3)[nH]c(=O)c2C#N)cc(C(C)(C)C)c1, the GI50 [1] is reported as 2.72 µM, the TGI [1] is reported as 8.82 µM and the GI50 [2] is reported as 2.05 µM. It also gave a TGI [2] of 4.81 µM, a GI50 [3] of 2.7 µM and a TGI [3] of 7.91 µM. It also gave a GI50 [4] of 3.25 µM, a TGI [4] of 11.9 µM and a GI50 [5] of 5.14 µM. It also gave a TGI [5] of 18.2 µM, a GI50 [6] of 14.2 µM and a TGI [6] greater than 100 µM. The GI50 [7] was 4.53 µM, the TGI [7] was 17 µM and the GI50 [8] was 3.03 µM. It also gave a TGI [8] of 10.8 µM, a GI50 [9] of 12.8 µM and a TGI [9] of 30.5 µM. For the same molecule, the GI50 [10] was 7.98 µM, the TGI [10] was 22.7 µM and the GI50 [11] was 37.7 µM. The TGI [11] was greater than 100 µM, the GI50 [12] was 5.8 µM and the TGI [12] was 22 µM. It also gave a GI50 [13] of 36.8 µM, a TGI [13] greater than 100 µM and a GI50 [14] of 2.02 µM. It also gave a TGI [14] of 4.53 µM, a GI50 [15] of 15.2 µM and a TGI [15] of 93.2 µM. It also gave a GI50 [16] of 3.05 µM, a TGI [16] of 10.8 µM and a GI50 [17] of 21.4 µM. For the same molecule, the TGI [17] was 61.4 µM, the GI50 [18] was 3.9 µM and the TGI [18] was 17.6 µM. The GI50 [19] was 3.71 µM, the TGI [19] was 15.9 µM and the GI50 [20] was 4.11 µM. It also gave a TGI [20] of 19.1 µM, a GI50 [21] of 3.56 µM and a TGI [21] of 13.1 µM. For the same molecule, the GI50 [22] was 17.8 µM, the TGI [22] was greater than 100 µM and the GI50 [23] was 6.22 µM. The TGI [23] was 22.4 µM, the GI50 [24] was 11.5 µM and the TGI [24] was 36.3 µM. The GI50 [25] was 12.4 µM, the TGI [25] was 41.5 µM and the GI50 [26] was 10.3 µM. For the same molecule, the TGI [26] was 29.7 µM, the GI50 [27] was 17.8 µM and the TGI [27] was greater than 100 µM. It also gave a GI50 [28] of 12 µM, a TGI [28] of 38.3 µM and a GI50 [29] of 2.69 µM. For the same molecule, the TGI [29] was 10.3 µM, the GI50 [30] was 12 µM and the TGI [30] was 26.5 µM. It also gave a GI50 [31] of 4.09 µM, a TGI [31] of 25.7 µM and a GI50 [32] of 19.4 µM. It also gave a TGI [32] greater than 100 µM, a GI50 [33] of 2.85 µM and a TGI [33] of 10.1 µM. For the same molecule, the GI50 [34] was 10.1 µM, the TGI [34] was 26.1 µM and the GI50 [35] was 15.1 µM. The TGI [35] was 73.3 µM, the GI50 [36] was greater than 100 µM and the TGI [36] was greater than 100 µM. The GI50 [37] was 14.6 µM, the TGI [37] was 43.1 µM and the GI50 [38] was 14.3 µM. For the same molecule, the TGI [38] was 34.1 µM, the GI50 [39] was 4.97 µM and the TGI [39] was 19.9 µM. It also gave a GI50 [40] of 38.8 µM, a TGI [40] greater than 100 µM and a GI50 [41] of 6.71 µM. For the same molecule, the TGI [41] was 45.8 µM, the GI50 [42] was 2.4 µM and the TGI [42] was 7.03 µM. The GI50 [43] was 18.6 µM, the TGI [43] was greater than 100 µM and the GI50 [44] was 12.9 µM. The TGI [44] was 39.1 µM, the GI50 [45] was 7.73 µM and the TGI [45] was 46.3 µM. It also gave a GI50 [46] of 2.81 µM, a TGI [46] of 11 µM and a GI50 [47] of 37.6 µM. It also gave a TGI [47] greater than 100 µM, a GI50 [48] of 23.4 µM and a TGI [48] of 62 µM. For the same molecule, the GI50 [49] was 6.58 µM, the TGI [49] was 22.6 µM and the GI50 [50] was 3.5 µM. For the same molecule, the TGI [50] was 13.9 µM, the GI50 [51] was 49.2 µM and the TGI [51] was greater than 100 µM. The GI50 [52] was 4.12 µM, the TGI [52] was 19 µM and the GI50 [53] was 11.3 µM. The TGI [53] was 31.6 µM, the GI50 [54] was 2.83 µM and the TGI [54] was 8.64 µM. For the same molecule, the GI50 [55] was 5.11 µM, the TGI [55] was 17.7 µM and the GI50 [56] was 13.5 µM. The TGI [56] was 36.2 µM, the GI50 [57] was 2.63 µM and the TGI [57] was 8.85 µM.
